{
  "source": "patent US6790470B1",
  "about": "“Aspartame derivative crystal and process for producing the same” (Ajinomoto Co., Inc., priority 1998, dated 2004)",
  "key": {"[1]": {"assay": "Dissolution time, Japanese Pharmacopoeia Paddle method (Test Example 2)", "type": "physicochemical", "conditions": "0.5 g sample in 900 ml water (20° C.), 100 rpm, end point visually confirmed", "procedure": "Measurement of the Dissolution Rates of the C-type Crystals (Original Powder) and Granules Thereof 0.5 g of the sample was introduced into 900 ml water (20° C.) in a 1-L elution tester (the Japanese Pharmacopoeia, Paddle method, 100 rpm) and its dissolution time was measured (end point was visually confirmed). That is, the C-type crystals (original powder with an average particle size of about 50 μm) obtained in Example 1 above and the granules (particle size of 100 to 500 μm and 500 to 1,400 μm) of C-type crystals obtained in Example 2 above were examined for measurements of their dissolution times in the same manner as described above."}, "[2]": {"assay": "Inherent dissolution rate of tabletted dried crystals in ion exchanged water (Test Example 1)", "type": "physicochemical", "conditions": "for amount of crystals dissolved: 300 mg tablet, 300 ml ion exchanged water, 20° C., 200 rpm", "procedure": "Measurement of the Dissolution Rate for the Dried Crystals The dissolution rates of the A-type crystals (Reference Example 2(b)) and the C-type crystals (Example 1) were determined in the following method. That is, 300 mg each of the crystals were introduced into a tabletting mortar (tablet machine) with an internal diameter of 8 mm and a depth of 12 mm, and tabletted at 300 kg/cm2G with “High Pressure Jack J-1 type” (manufactured by Iuchi Seieido) to prepare a sample for measurement of dissolution rate. For measurement of the dissolution rate, the tabletting mortar with only the tabletting face exposed was introduced into 300 ml ion exchanged water kept at 20° C. at a stirring in the number of revolution of 200 rpm, and the inherent dissolution rate was determined using “DISSOLUTION TESTER” (NTR-6100) (manufactured by Toyama Sangyo K. K.)."}, "[3]": {"conditions": "weight ratio, cited from earlier work"}},
  "data": [
    {"smiles": "COC(=O)[C@H](Cc1ccccc1)NC(=O)[C@H](CC(=O)O)NCCC(C)(C)C", "note": "[C-type crystals, N-[N-(3,3-dimethylbutyl)-L-α-aspartyl]-L-phenylalanine methyl ester]", "values": [
      {"measurement": "dissolution time", "setting": "[1]", "result": 55, "unit": "min"},
      {"measurement": "amount of crystals dissolved", "setting": "[2]; 30 minutes", "result": 25, "unit": "mg"},
      {"measurement": "amount of crystals dissolved", "setting": "[2]; 60 minutes", "result": 42, "unit": "mg"},
      {"measurement": "amount of crystals dissolved", "setting": "[2]; 120 minutes", "result": 86, "unit": "mg"},
      {"measurement": "dissolution rate as compared with the A-type crystals", "setting": "[2]; comparison with A-type crystals", "result": "significantly improved dissolution rate"}
    ]},
    {"smiles": "COC(=O)[C@H](Cc1ccccc1)NC(=O)[C@H](CC(=O)O)NCCC(C)(C)C", "note": "[A-type crystals, N-[N-(3,3-dimethylbutyl)-L-α-aspartyl]-L-phenylalanine methyl ester, reference compound]", "values": [
      {"measurement": "amount of crystals dissolved", "setting": "[2]; 30 minutes", "result": 17, "unit": "mg"},
      {"measurement": "amount of crystals dissolved", "setting": "[2]; 60 minutes", "result": 34, "unit": "mg"},
      {"measurement": "amount of crystals dissolved", "setting": "[2]; 120 minutes", "result": 69, "unit": "mg"}
    ]},
    {"smiles": "COC(=O)[C@H](Cc1ccccc1)NC(=O)[C@H](CC(=O)O)NCCC(C)(C)C", "note": "[N-(3,3-dimethylbutyl)-APM, N-[N-(3,3-dimethylbutyl)-L-α-aspartyl]-L-phenylalanine methyl ester]", "values": [
      {"measurement": "efficacy of sweetness relative to Aspartame", "setting": "[3]; versus Aspartame", "result": "at least 50 times"},
      {"measurement": "efficacy of sweetness relative to sucrose", "setting": "[3]; versus sucrose (table sugar)", "result": "about 10,000 times"}
    ]}
  ]
}
